Test results as given in patent publication US9302999B2, “Substituted triazoles as herbicides” (E. I. DU PONT DE NEMOURS AND COMPANY, priority 2012, dated 2016).

Experiments:
Type in all cases: in vivo
[1] = system: bromegrass, downy (downy bromegrass, Bromus tectorum); test: Test C pre-/postemergence: bromegrass, downy
Excerpt: Seeds of plant species selected from blackgrass (Alopecurus myosuroides), bromegrass, downy (downy bromegrass, Bromus tectorum), foxtail, green (green foxtail, Setaria viridis), ryegrass, Italian (Italian ryegrass, Lolium multiflorum), winter wheat (Triticum aestivum), wild oat (Avena fatua), galium (catchweed bedstraw, Galium aparine), bermudagrass (Cynodon dactylon), surinam grass (Brachiaria decumbens), cocklebur (common cocklebur, Xanthium strumarium), corn (Zea mays), large crabgrass (Digitaria sanguinalis), woolly cupgrass (Eriochloa villosa), foxtail, giant (giant foxtail, Setaria faberii), goosegrass (Eleusine indica), johnsongrass (Sorghum halepense), kochia (Kochia scoparia), lambsquarters (Chenopodium album), morningglory (Ipomoea coccinea), nightshade (eastern black nightshade, Solanum ptycanthum), nutsedge, yellow (yellow nutsedge, Cyperus esculentus), pigweed (Amaranthus retroflexus), ragweed (common ragweed, Ambrosia elation), soybean (Glycine max), common (oilseed) sunflower (Helianthus annuus), Russian thistle (Salsola kali) and velvetleaf (Abutilon theophrasti) were planted into a blend of loam soil and sand and treated preemergence with test chemicals formulated in a non-phytotoxic solvent mixture which included a surfactant.
At the same time, plants selected from these crop and weed species and also barley (winter barley, Hordeum vulgare), canarygrass (Phalaris minor), chickweed (common chickweed, Stellaria media) windgrass (Apera spica-venti) and deadnettle (henbit deadnettle, Lamium amplexicaule) were planted in pots containing Redi-Earth® planting medium (Scotts Company, 14111 Scottslawn Road, Marysville, Ohio 43041) comprising spaghnum peat moss, vermiculite, wetting agent and starter nutrients and treated with postemergence applications of test chemicals formulated in the same manner. Plants ranged in height from 2 to 18 cm (1- to 4-leaf stage) for postemergence treatments.
(§1) Treated plants and controls were maintained in a greenhouse for 13 to 15 days, after which time all species were compared to controls and visually evaluated. Plant response ratings, summarized in Table C, are based on a scale of 0 to 100 where 0 is no effect and 100 is complete control. A dash (-) response means no test result.

[2] = system: ducksalad (Heteranthera limosa); test: Test B flooded paddy: ducksalad; conditions: Flood, applied to paddy water at 2-leaf stage, visually evaluated after 13 to 15 days
How it was run: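 Paddy-water application: seedlings at 2-leaf stage, flood depth 3 cm maintained for the test duration. Evaluation after 13–15 days in the greenhouse by eye relative to controls; 0–100 scale.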

[3] = system: chickweed (common chickweed, Stellaria media); test: Test D pre-/postemergence: chickweed
Excerpt: Seeds of plant species selected from bluegrass (annual bluegrass, Poa annua), blackgrass (Alopecurus myosuroides), canarygrass (Phalaris minor), chickweed (common chickweed, Stellaria media), galium (catchweed bedstraw, Galium aparine), bromegrass, downy (downy bromegrass, Bromus tectorum), field poppy (Papaver rhoeas), field violet (Viola arvensis), foxtail, green (green foxtail, Setaria viridis), deadnettle (henbit deadnettle, Lamium amplexicaule), ryegrass, Italian (Italian ryegrass, Lolium multiflorum), kochia (Kochia scoparia), lambsquarters (Chenopodium album), oilseed rape (Brassica napus), pigweed (Amaranthus retroflexus), Russian thistle (Salsola iberica), chamomile (scentless chamomile, Matricaria inodora), speedwell (bird's-eye speedwell, Veronica persica), barley, spring (spring barley, Hordeum vulgare), wheat, spring (spring wheat, Triticum aestivum), buckwheat, wild (wild buckwheat, Polygonum convolvulus), mustard, wild (wild mustard, Sinapis arvensis), oat, wild (wild oat, Avena fatua), radish, wild (wild radish, Raphanus raphanistrum), windgrass (Apera spica-venti), barley, winter (winter barley, Hordeum vulgare), and wheat, winter (winter wheat, Triticum aestivum) were planted into a silt loam soil and treated preemergence with test chemicals formulated in a non-phytotoxic solvent mixture which included a surfactant. At the same time, these same crop and weed species were planted in pots containing the planting medium comprising spaghnum peat moss, vermiculite, wetting agent and starter nutrients and treated with postemergence applications of the test chemicals formulated in the same manner. Plants ranged in height from 2 to 18 cm (1- to 4-leaf stage).
as §1, with “controlled growth environment” for “greenhouse”, “14” for “13”, “21 days” for “15 days,”, “D,” for “C,”

[4] = Postemergence, 31 g ai/ha, scale 0 to 100 (0 no effect, 100 complete control)
[5] = Postemergence, 62 g ai/ha, scale 0 to 100 (0 no effect, 100 complete control)
[6] = Postemergence, 125 g ai/ha, scale 0 to 100, 0 no effect, 100 complete control
[7] = Postemergence, 250 g ai/ha, scale 0 to 100 (0 no effect, 100 complete control)
[8] = Postemergence, 16 g ai/ha, scale 0 to 100
[9] = Postemergence, 250 g ai/ha, scale 0 to 100
[10] = Preemergence, 31 g ai/ha, scale of 0 to 100, 0 is no effect, 100 is complete control
[11] = Preemergence, 62 g ai/ha, scale of 0 to 100, 0 is no effect, 100 is complete control
[12] = Preemergence, 125 g ai/ha, scale 0 to 100, 0 no effect, 100 complete control
[13] = Preemergence, 250 g ai/ha, scale 0 to 100, 0 no effect, 100 complete control

SMILES | Plant response rating, Bromegrass, Downy [1, 4] | Plant response rating, Bromegrass, Downy [1, 5] | Plant response rating, Bromegrass, Downy [1, 6] | Plant response rating, Ducksalad (0 to 100 scale, 0 is no effect, 100 is complete control) ([2]; 250 g ai/ha) | Plant response rating: Chickweed [3, 4] | Plant response rating: Chickweed [3, 5] | Plant response rating: Chickweed [3, 6] | Plant response rating, Chickweed [3, 8] | Plant response rating, Bromegrass, Downy [1, 9] | Plant response rating, Bromegrass, Downy [1, 11] | Plant response rating, Bromegrass, Downy [1, 12] | Plant response rating, Bromegrass, Downy [1, 13] | other results
Cc1nn(-c2ccc(C(F)(F)F)cc2)nc1Cc1cccc(C(F)(F)F)c1 [Compound 124] | 0 | 0 | 0 |  |  |  |  |  |  |  |  |  | Plant response rating, Bromegrass, Downy ([1]; Postemergence, 16 g ai/ha, scale 0 to 100, 0 no effect, 100 complete control): 0
Cc1nn(-c2ccnc(C(F)(F)F)c2)nc1Cc1ccnc(C(F)(F)F)c1 [Compound 137] | 10 | 30 | 60 | 50 | 50 | 80 | 85 | 40 | 85 |  |  |  | Plant response rating: Chickweed [3, 7]: 90
Fc1ccc(-n2nc(Cc3ccnc(C(F)(F)F)c3)c(OCC(F)(F)F)n2)cc1 [Compound 142] | 25 | 45 | 45 | 90 |  |  |  |  | 50 | 60 | 90 | 90 | Plant response rating, Bromegrass, Downy [1, 10]: 20
Cc1nn(-c2ccc(F)c(F)c2)nc1Oc1ccnc(C(F)(F)F)c1 [Compound 145] | 5 | 10 | 20 | 60 | 60 | 80 | 90 | 75 | 25 | 20 | 70 | 85 | Plant response rating, Chickweed ([3]; Postemergence, 8 g ai/ha, scale 0 to 100): 40; Plant response rating, Bromegrass, Downy [1, 10]: 5
Cc1nn(-c2ccc(F)c(C(F)(F)F)c2)nc1Oc1ccnc(C(F)(F)F)c1 [Compound 147] |  |  |  | 40 | 70 | 80 | 80 | 60 |  | 45 | 85 | 90 | Plant response rating, Chickweed ([3]; Preemergence, 16 g ai/ha, scale 0 to 100 (0 no effect, 100 complete control)): 35; Plant response rating, Chickweed ([3]; Preemergence, 31 g ai/ha, scale 0 to 100 (0 no effect, 100 complete control)): 85; Plant response rating, Chickweed ([3]; Preemergence, 62 g ai/ha, scale 0 to 100): 70; Plant response rating, Chickweed ([3]; Preemergence, 125 g ai/ha, scale 0 to 100): 100; Plant response rating, Bromegrass, Downy [1, 10]: 10
CCCc1nn(-c2ccc(F)cc2)nc1Cc1ccnc(C(F)(F)F)c1 [Compound 153] |  |  |  | 90 |  |  |  |  |  |  |  |  | 
Cc1nn(-c2ccc(C(F)(F)F)c(F)c2)nc1Cc1ccnc(C(F)(F)F)c1 [Compound 162] |  |  |  |  |  |  |  |  |  |  |  |  | Plant response rating, Ducksalad (0 to 100 scale, 0 is no effect, 100 is complete control) ([2]; 125 g ai/ha): 0
CCc1nn(-c2ccc(F)cc2)nc1Oc1ccnc(C(F)(F)F)c1 [Compound 166] |  |  |  |  |  |  |  |  |  |  |  |  | Plant response rating, Ducksalad (0 to 100 scale, 0 is no effect, 100 is complete control) ([2]; 125 g ai/ha): 70
CCCc1nn(-c2ccc(C(F)(F)F)c(F)c2)nc1Oc1ccnc(C(F)(F)F)c1 [Compound 185] |  |  |  | 65 |  |  |  |  |  |  |  |  | 
CCOc1nn(-c2ccc(Br)cc2)nc1Cc1ccnc(C(F)(F)F)c1 [Compound 189] |  |  |  |  |  |  |  |  |  |  |  |  | Plant response rating, Ducksalad (0 to 100 scale, 0 is no effect, 100 is complete control) ([2]; 125 g ai/ha): 20
CCOc1nn(-c2ccc(F)cc2)nc1Cc1ccnc(C(F)F)c1 [Compound 195] | 15 | 30 | 50 | 100 | 40 | 60 | 85 | 30 | 60 | 45 | 85 | 90 | Plant response rating: Chickweed [3, 7]: 90; Plant response rating, Bromegrass, Downy ([1]; Preemergence, 31 g ai/ha, scale 0 (no effect) to 100 (complete control)): 15
